For one experiment, the system named is APK. The experiment can be described thus: APK IC50. Type of experiment: biochemical.
For experiment [1], the system named is CCI-induced static allodynia. The experiment can be described thus: static allodynia in CCI animals after intrathecal administration of other MEK inhibitors (Biological Example 3). Type of experiment: in vivo, rat. To be noted: for magnitude of the antiallodynic effect: intrathecal, 30µg of PD 184352 compared with 100µg of pregabalin. The source says: (§1) Animals were anaesthetised with 2% isoflurane 1:4 O2/N2O mixture maintained during surgery via a nose cone. The sciatic nerve was ligated as previously described by Bennett and Xie, 1988. Animals were placed on a homeothermic blanket for the duration of the procedure. After surgical preparation the common sciatic nerve was exposed at the middle of the thigh by blunt dissection through biceps femoris. Proximal to the sciatic trifurcation, about 7mm of nerve was freed of adhering tissue and 4 ligatures (4-0 silk) were tied loosely around it with about 1mm spacing. The incision was closed in layers and the wound treated with topical antibiotics.
(§2) PD 198306 and pregabalin were administered intrathecally in a volume of 10 µl using a 100 µl Hamilton syringe by exposing the spine of the rats under brief isoflurane anaesthesia. Injections were made into the intrathecal space between lumbar region 5-6 with a 10 mm long 27 gauge needle. Penetrations were judged successful if there was a tail flick response. The wound was sealed with an autoclip and rats appeared fully awake within 2-3 min following injection.
(§3) Mechanical hypersensitivity was measured using Semmes-Weinstein von Frey hairs (Stoelting, Illinois, U.S.A.). Animals were placed into wire mesh bottom cages allowing access to the underside of their paws. Animals were habituated to this environment prior to the start of the experiment. Mechanical hypersensitivity was tested by touching the plantar surface of the animals right hind paw with von Frey hairs in ascending order of force ( 0.7, 1.2, 1.5, 2, 3.6, 5.5, 8.5, 11.8, 15.1 and 29g) for up to 6sec. Once a withdrawal response was established, the paw was re-tested, starting with the next descending von Frey hair until no response occurred. The highest force of 29g lifted the paw as well as eliciting a response, thus represented the cut off point. The lowest amount of force required to elicit a response was recorded as the paw withdrawal threshold (PWT) in grams.
The animals and methods for developing chronic constriction injury in the rat, injecting test compounds, and evaluation of static allodynia were according to Example 2 above. […] Static allodynia was assessed with von Frey hairs, before (baseline, BL) and 0.5h, 1h and 2h after intrathecal administration of the compounds
Pregabalin was dissolved in water. All compounds were administered intrathecally in a 10µl volume.
(§4) Data were analysed using a Kruskall-Wallis ANOVA for non-parametric results, followed when significant by Mann-Whitney's t test vs vehicle group.

The next experiment concerns the target MEK. The experiment can be described thus: affinity (binding affinities) of the MEK inhibitors. Conditions: affinity of the MEK inhibitors tested in the CCI model.
Experiment [2] relates to streptozocin-induced static allodynia. The experiment can be described thus: streptozocin-induced static allodynia, von Frey hairs, oral, intrathecal or intraplantar administration (Biological Example 2). The class given is in vivo, rat. As for the experimental part: (§5) Male Sprague Dawley rats (250-300g), obtained from Charles River, Margate, U.K.) were housed in groups of 3-6. All animals were kept under a 12h light/dark cycle (lights on at 07h 00min) with food and water ad libitum. All experiments were carried out by an observer blind to drug treatments.
Diabetes was induced in rats by a single i.p. injection of streptozocin (50mg/kg) as described previously (Courteix et al., 1993).
as §2, §3
(§6) Static allodynia was assessed with von Frey hairs, before (baseline, BL) and 0.5h, 1h and 2h after intrathecal or intraplantar administration of PD 198306 (1-30µg, i.t.), vehicle (cremophor:ethanol:water, 1:1:8) or pregabalin (10µg, i.t). For oral administration experiments, static allodynia was assessed with von Frey hairs, before (baseline, BL) and 1h after oral administration of PD 198306 (3-30mg/kg, p.o.), vehicle (cremophor:ethanol:water, 1:1:8) or pregabalin (30mg/kg, p.o.). Animals were administered again the same compounds on the following day, both in the morning and the afternoon. Static allodynia was assessed before and 1h after the morning administration. In the afternoon static allodynia was assessed before, 1h, 2h and 3h after administration for streptozocin treated animals. CCI animals were assessed before, 1h and 2h after administration
(§7) PD 198306 and pregabalin were synthesised at Parke-Davis (Ann Arbor, Ml, USA). PD 198306 was suspended in cremophor:ethanol:water (1:1:8) vehicle. Pregabalin was dissolved in water. Both compounds were administered orally, intrathecally or intraplantar in volumes of 1ml/kg, 10µl and 100µl respectively. Streptozocin (Aldrich, UK) was dissolved in 0.9% w/v NaCl and administered intraperitoneally in a volume of 1ml/kg.
as §4

The test system of experiment [3] is CCI-induced static allodynia. The experiment can be described thus: CCI-induced static allodynia (chronic constriction injury of the sciatic nerve), von Frey hairs (Biological Example 2). Type of experiment: in vivo, rat. As for the experimental part: as §5, §1, §2, §3, §6, §7, §4
Experiment [4] concerns streptozocin-induced static allodynia. The experiment can be described thus: streptozocin-induced static allodynia, von Frey hairs, oral administration (Biological Example 1). The class given is in vivo, rat. On the procedure: Male Sprague Dawley rats (250-300g), obtained from Bantin and Kingman, (Hull, U.K.) were housed in groups of 3. All animals were kept under a 12h light/dark cycle (lights on at 07h 00min) with food and water ad libitum. All experiments were carried out by an observer blind to drug treatments.
Diabetes was induced in rats by a single i.p. injection of streptozocin (50 mg/kg) as described previously (Courteix et al., 1993).
as §3, with “to 6 sec.” for “to 6sec.”, “of 29 g” for “of 29g”
PD 198306 [N-Cyclopropylmethoxy-3,4,5-trifluoro-2-(4-iodo-2-methylphenylamino)-benzamide] and Cl-1008 (pregabalin) were synthesized at Parke-Davis (Ann Arbor, Ml, USA). PD 198306 was suspended in cremophor:ethanol:water (1:1:8) vehicle. Pregabalin was dissolved in water. Both compounds were administered orally. Streptozocin (Aldrich, UK) was dissolved in 0.9% w/v NaCI and administered intraperitoneally. Drug administrations were made in a volume of 1 ml/kg.
The static allodynia data were analysed using a Kruskall-Wallis ANOVA for non-parametric results, followed when significant by Mann-Whitney's t test.
Static allodynia was assessed with von Frey hairs, before (baseline, BL) and 1h after oral administration of PD 198306 (30mg/kg, p.o.), vehicle (cremophor:ethanol:water, 1:1:8) or pregabalin (30mg/kg, p.o.) (test). Animals were administered again the same compounds on the following day, both in the morning and the afternoon. Static allodynia was assessed only before and 1h after the afternoon administration, in order to minimise the habituation of the animals to the testing conditions. Animals treated with pregabalin received water in the morning administration, in order to avoid the potential development of tolerance to the compound with repeated administration.

The mark [5] stands for this setting: intrathecal, streptozocin animals.
[6] abbreviates: single administration 30mg/kg p.o., 1h after administration.

Each structure is given as a SMILES string. Entries after “also recorded” stand apart in the source; their conditions may differ.

As usually defined, the IC50 is the concentration that gives 50% inhibition. Read a high IC50 as lower potency. `O=C(O)c1cc([N+](=O)[O-])c(Nc2ccc(I)cc2Cl)c(F)c1Nc1ccc(I)cc1Cl` [2,4-bis-(2-chloro-4-iodo-phenylamino)-3-fluoro-5-nitrobenzoic acid] displayed an IC50 in the experiment with APK of 29.6 nM.

Regarding `COC(=O)c1cc(S(=O)(=O)N(C)C)c(F)c(F)c1Nc1ccc(I)cc1Cl` [2-(2-chloro-4-iodo-phenylamino)-5-dimethylsulfamoyl-3,4-difluoro-benzoic acid methyl ester], the IC50 in the experiment with APK was 222 nM.

On to `NS(=O)(=O)c1cc(C(=O)NOCC2CC2)c(Nc2ccc(I)cc2Cl)c(F)c1F` [PD219622, 2-(2-chloro-4-iodo-phenylamino)-N-cyclopropylmethoxy-3,4-difluoro-5-sulfamoyl-benzamide], for which the “effect on static allodynia” value in experiment [1] (intrathecal 30µg) was “had no significant effect”. The compound also gave an IC50 on MEK of 100 nM.

Turning to `O=C(NOCC1CC1)c1ccc(F)c(F)c1Nc1ccc(I)cc1Cl` [PD 184352], in experiment [1] (intrathecal 30µg), the “duration of antiallodynic effect post-injection” value was 30 min and the “effect on static allodynia” value was “blocked the maintenance of static allodynia”. The “magnitude of the antiallodynic effect” value in experiment [1] is “similar”.

With `Cc1cc(I)ccc1Nc1c(C(=O)NOCC2CC2)cc(F)c(F)c1F` [PD 198306, N-Cyclopropylmethoxy-3,4,5-trifluoro-2-(4-iodo-2-methylphenylamino)-benzamide], the “duration of block of streptozocin-induced static allodynia” value in experiment [2] (30mg/kg p.o., after the third administration) is 2 h. Moreover, the static allodynia result is on record as “had no effect” in experiment [2] (intraplantar 3mg/100µl, streptozocin animals) and “had no effect” in experiment [3] (intraplantar 3mg/100µl, CCI animals). Besides, the “maintenance of static allodynia” value in experiment [2] (intrathecal 30µg (highest dose), streptozocin animals) was “totally blocked; also recorded: significantly blocked”; in experiment [2] (intrathecal 1-30µg, streptozocin animals) it was “dose-dependently blocked”; in experiment [3] (intrathecal 30µg (highest dose), CCI animals), “totally blocked; also recorded: significantly blocked”; in experiment [3] (intrathecal 1-30µg, CCI animals), “dose-dependently blocked”. Moreover, the “duration of antiallodynic effect” value in experiment [2] (setting [5]) is recorded as “up to 1 h”; in experiment [2] (intrathecal, streptozocin animals, listed as PD198306), 1 h; in experiment [3] (intrathecal, CCI animals), “up to 1 h”; in experiment [3] (intrathecal, CCI animals, listed as PD198306) it was 1 h. For the same compound, the “minimum effective dose (MED)” value in experiment [2] (setting [5]) is listed as 3 µg; in experiment [3] (intrathecal, CCI animals) it was 10 µg. Moreover, the streptozocin-induced static allodynia entry was “transient effect; also recorded: significantly blocked” in experiment [2] (p.o., 30mg/kg, after the third administration (3 doses over two days), 30 mg/kg); “had no effect” in experiment [2] (single administration 3-30mg/kg p.o., 1h after administration); “significantly blocked” in experiment [4] (30mg/kg p.o., 1h after the third administration (administered twice more on the following day)); “had no effect” in experiment [4] (setting [6]). In experiment [3] (3-30mg/kg p.o., single or multiple administration), the CCI-induced static allodynia result is given as “had no effect; also recorded: neither a single or multiple administration of PD 198306 (3-30mg/kg, p.o) had any effect”. Further, in experiment [4] (30mg/kg p.o., day after the third administration), the “persistence of the effects on streptozocin-induced static allodynia” value was “had disappeared by the following day”.

Take `O=S(=O)(NOCC1CC1)c1ccc(F)c(F)c1Nc1ccc(I)cc1Cl` [PD 0297447, 2-(2-Chloro-4-iodo-phenylamino)-N-cyclopropylmethoxy-3,4-difluoro-benzenesulfonamide]: in experiment [1] (intrathecal 30µg), the “effect on static allodynia” value is listed as “had no significant effect”. Besides, the IC50 in the experiment with APK and on MEK was 965 nM throughout.

`CC(C)C[C@H](CN)CC(=O)O` [pregabalin, reference compound]: the streptozocin-induced static allodynia entry in experiment [2] (setting [6]) and in experiment [4] (setting [6]) was “significantly blocked” each time. Further, the “magnitude of the antiallodynic effect” value in experiment [1] is “similar”. For the same compound, the CCI-induced static allodynia entry in experiment [3] (setting [6]) is on record as “significantly blocked”.

The record behind these values is patent EP1202724B1, “METHOD FOR TREATING CHRONIC PAIN USING MEK INHIBITORS” (WARNER-LAMBERT COMPANY, priority 1999, dated 2001).
